Active and inactive are the calls of the source. For most assays here, no stated cut-off is given here; in the data, actives have a measured Kd and inactives only a lower limit.
Columns and labels:
[1] = molecular target: High affinity nerve growth factor receptor (Homo sapiens, UniProt P04629)
[2] = molecular target: Mitogen-activated protein kinase 14 (Homo sapiens, UniProt Q16539)
[3] = molecular target: T1, Succinate--CoA ligase [ADP-forming] subunit beta, mitochondrial (Homo sapiens, UniProt Q9P2R7)
T1 sequence (Q9P2R7 whole entry): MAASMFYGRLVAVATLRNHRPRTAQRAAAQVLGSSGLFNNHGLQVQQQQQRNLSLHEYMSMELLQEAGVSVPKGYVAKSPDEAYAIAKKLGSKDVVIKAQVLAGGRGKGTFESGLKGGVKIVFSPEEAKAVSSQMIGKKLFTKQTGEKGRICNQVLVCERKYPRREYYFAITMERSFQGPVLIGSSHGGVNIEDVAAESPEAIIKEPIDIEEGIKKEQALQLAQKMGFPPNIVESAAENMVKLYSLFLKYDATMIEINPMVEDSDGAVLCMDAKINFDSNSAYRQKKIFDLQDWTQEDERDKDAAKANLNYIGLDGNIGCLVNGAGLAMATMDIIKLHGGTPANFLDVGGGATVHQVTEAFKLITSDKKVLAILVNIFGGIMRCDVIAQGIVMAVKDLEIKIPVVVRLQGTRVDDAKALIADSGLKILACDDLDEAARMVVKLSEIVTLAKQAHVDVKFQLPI

[4] = molecular target: Mitogen-activated protein kinase kinase kinase kinase 4 (Homo sapiens, UniProt O95819)
[5] = molecular target: Macrophage-stimulating protein receptor (Homo sapiens, UniProt Q04912)
[6] = molecular target: T2, Breakpoint cluster region protein (Homo sapiens, UniProt P11274)
T2 sequence (P11274 whole entry): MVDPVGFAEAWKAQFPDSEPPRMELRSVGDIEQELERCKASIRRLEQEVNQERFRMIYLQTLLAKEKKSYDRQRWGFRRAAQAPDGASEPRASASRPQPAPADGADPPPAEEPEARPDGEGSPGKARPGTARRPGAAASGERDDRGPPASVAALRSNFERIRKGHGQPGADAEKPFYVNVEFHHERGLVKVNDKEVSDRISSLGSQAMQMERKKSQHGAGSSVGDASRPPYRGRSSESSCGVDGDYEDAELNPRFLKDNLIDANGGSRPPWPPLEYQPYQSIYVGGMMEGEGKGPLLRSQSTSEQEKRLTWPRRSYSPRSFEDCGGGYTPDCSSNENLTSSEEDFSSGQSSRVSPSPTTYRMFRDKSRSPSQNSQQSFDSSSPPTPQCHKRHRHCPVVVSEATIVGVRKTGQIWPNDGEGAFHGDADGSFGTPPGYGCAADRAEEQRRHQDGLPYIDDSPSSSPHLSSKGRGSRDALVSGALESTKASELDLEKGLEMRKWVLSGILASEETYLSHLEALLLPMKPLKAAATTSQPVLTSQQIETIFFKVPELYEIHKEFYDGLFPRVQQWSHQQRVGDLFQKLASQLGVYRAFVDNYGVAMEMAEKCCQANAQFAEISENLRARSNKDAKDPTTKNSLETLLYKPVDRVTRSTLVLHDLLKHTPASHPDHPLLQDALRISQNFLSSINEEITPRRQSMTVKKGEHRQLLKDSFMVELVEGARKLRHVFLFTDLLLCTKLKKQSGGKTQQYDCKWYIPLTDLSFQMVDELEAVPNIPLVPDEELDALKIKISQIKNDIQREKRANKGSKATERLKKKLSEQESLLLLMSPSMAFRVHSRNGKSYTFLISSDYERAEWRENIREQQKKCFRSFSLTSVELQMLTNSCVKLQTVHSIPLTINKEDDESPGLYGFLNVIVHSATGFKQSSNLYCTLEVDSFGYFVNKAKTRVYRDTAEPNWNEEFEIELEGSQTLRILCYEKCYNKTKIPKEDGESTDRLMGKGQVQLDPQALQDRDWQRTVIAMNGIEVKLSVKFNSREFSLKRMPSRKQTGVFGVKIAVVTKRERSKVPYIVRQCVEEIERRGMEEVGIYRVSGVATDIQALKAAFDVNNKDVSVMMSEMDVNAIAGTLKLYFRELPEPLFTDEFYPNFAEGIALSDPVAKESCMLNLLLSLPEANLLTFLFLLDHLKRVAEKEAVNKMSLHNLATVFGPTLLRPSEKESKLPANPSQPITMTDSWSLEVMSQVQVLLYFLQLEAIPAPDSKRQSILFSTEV

[7] = molecular target: T3, Dual specificity mitogen-activated protein kinase kinase 6 (Homo sapiens, UniProt P52564)
T3 sequence (P52564 whole entry): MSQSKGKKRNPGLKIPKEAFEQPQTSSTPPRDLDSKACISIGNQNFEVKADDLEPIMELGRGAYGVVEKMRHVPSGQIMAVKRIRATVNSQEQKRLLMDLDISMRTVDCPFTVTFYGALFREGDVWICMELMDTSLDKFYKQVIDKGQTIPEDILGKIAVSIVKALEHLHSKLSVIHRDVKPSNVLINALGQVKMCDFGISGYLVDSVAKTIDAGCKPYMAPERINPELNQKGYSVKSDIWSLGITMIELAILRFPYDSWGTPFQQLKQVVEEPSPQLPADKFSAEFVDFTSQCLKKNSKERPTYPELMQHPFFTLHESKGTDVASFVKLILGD

[8] = molecular target: Glycogen synthase kinase-3 alpha (Homo sapiens, UniProt P49840)
[9] = molecular target: DnaJ homolog subfamily A member 1 (Homo sapiens, UniProt P31689)
[10] = molecular target: Citron Rho-interacting kinase (Homo sapiens, UniProt O14578)
[11] = molecular target: T4, Serine/threonine-protein kinase Nek2 (Homo sapiens, UniProt P51955)
T4 sequence (P51955 whole entry): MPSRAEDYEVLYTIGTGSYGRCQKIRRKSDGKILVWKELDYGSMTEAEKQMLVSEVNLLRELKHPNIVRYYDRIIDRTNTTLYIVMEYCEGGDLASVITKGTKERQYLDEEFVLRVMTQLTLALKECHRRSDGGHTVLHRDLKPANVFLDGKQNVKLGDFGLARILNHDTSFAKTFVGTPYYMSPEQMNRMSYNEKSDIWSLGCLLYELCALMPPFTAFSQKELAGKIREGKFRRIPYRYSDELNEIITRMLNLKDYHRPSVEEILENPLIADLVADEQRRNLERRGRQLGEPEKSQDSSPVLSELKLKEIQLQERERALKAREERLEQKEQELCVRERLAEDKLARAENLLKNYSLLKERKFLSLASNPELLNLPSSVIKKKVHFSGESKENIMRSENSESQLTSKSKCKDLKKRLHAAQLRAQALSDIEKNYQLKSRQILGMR

Glycogen synthase kinase-3 alpha, sequence (P49840 whole entry): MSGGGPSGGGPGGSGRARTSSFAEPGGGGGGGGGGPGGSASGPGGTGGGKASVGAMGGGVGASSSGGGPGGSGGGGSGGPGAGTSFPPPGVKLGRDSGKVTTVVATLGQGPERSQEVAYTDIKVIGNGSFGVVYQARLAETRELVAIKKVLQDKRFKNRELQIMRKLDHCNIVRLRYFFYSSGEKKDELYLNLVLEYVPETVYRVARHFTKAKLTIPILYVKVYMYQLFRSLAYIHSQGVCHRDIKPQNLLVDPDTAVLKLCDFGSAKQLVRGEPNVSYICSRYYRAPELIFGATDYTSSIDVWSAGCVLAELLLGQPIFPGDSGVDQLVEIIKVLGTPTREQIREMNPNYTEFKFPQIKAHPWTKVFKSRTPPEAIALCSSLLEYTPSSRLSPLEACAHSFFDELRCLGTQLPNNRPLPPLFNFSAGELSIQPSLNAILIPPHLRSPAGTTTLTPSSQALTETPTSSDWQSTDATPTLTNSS
Mitogen-activated protein kinase kinase kinase kinase 4, sequence (O95819 whole entry): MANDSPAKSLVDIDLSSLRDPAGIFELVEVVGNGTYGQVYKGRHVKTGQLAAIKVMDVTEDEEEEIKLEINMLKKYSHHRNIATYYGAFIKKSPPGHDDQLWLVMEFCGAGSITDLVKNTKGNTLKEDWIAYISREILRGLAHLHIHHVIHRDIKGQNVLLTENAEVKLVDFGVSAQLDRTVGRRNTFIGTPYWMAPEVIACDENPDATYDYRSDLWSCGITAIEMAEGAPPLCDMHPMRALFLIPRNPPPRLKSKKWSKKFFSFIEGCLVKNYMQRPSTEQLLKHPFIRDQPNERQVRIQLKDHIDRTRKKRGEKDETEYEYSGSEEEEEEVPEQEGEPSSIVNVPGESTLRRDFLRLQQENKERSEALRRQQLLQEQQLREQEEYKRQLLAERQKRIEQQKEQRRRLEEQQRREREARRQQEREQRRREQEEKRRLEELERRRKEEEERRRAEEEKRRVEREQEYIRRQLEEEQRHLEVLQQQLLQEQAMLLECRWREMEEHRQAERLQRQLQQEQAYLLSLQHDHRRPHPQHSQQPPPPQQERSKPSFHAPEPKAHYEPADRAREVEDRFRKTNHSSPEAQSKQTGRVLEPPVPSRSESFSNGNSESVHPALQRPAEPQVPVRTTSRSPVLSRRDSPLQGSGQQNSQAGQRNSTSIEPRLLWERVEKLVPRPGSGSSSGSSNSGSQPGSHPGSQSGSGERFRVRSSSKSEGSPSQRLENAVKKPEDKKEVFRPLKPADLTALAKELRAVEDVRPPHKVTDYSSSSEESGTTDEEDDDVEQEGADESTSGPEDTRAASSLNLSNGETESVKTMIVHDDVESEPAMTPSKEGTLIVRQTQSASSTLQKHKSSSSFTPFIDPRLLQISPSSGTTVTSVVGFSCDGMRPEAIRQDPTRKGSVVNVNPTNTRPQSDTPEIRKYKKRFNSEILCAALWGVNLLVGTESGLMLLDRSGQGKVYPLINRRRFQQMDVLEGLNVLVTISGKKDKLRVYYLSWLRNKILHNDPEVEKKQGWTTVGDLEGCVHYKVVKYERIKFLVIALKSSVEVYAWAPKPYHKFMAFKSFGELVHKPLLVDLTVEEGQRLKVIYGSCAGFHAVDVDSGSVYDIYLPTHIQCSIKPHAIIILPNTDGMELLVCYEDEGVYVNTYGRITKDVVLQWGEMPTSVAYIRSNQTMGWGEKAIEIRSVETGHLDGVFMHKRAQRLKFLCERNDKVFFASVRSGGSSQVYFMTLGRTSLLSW
Macrophage-stimulating protein receptor, sequence (Q04912 25-304 limits assumed): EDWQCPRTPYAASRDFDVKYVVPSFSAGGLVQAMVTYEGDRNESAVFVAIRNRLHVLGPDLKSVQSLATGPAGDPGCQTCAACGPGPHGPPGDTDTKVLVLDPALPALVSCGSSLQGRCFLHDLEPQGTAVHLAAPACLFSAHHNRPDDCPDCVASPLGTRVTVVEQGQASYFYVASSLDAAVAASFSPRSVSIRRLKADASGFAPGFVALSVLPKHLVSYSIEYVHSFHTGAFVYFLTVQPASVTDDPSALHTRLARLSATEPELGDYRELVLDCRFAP
Macrophage-stimulating protein receptor, sequence (Q04912 310-1400 limits assumed): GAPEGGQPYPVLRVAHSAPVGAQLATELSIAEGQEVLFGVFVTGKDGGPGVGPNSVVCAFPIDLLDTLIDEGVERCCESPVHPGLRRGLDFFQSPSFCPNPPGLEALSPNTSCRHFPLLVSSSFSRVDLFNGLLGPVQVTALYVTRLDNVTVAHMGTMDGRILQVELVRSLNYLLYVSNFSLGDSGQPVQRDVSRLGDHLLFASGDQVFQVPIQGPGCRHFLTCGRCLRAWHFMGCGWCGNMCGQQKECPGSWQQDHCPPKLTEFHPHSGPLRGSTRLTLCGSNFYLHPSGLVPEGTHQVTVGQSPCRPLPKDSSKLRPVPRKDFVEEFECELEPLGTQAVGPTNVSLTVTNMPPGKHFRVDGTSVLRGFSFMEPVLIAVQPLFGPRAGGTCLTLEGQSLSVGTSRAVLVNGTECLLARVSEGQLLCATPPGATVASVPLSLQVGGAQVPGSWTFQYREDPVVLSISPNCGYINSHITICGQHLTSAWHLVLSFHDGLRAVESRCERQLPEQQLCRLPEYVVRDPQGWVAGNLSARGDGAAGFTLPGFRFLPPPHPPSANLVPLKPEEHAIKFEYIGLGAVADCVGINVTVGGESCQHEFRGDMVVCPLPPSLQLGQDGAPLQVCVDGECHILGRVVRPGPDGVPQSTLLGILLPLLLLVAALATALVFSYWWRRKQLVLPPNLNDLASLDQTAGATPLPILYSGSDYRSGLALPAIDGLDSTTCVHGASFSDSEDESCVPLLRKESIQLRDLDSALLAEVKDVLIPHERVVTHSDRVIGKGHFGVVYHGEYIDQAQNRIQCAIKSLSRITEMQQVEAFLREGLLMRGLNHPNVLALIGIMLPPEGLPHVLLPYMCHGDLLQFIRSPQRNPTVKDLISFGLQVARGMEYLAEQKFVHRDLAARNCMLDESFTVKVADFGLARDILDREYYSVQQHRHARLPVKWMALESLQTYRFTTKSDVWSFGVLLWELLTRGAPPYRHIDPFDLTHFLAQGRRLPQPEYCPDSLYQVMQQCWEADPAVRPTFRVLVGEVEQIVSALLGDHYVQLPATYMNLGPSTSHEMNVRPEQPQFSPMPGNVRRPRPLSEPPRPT
Mitogen-activated protein kinase 14, sequence (Q16539 whole entry): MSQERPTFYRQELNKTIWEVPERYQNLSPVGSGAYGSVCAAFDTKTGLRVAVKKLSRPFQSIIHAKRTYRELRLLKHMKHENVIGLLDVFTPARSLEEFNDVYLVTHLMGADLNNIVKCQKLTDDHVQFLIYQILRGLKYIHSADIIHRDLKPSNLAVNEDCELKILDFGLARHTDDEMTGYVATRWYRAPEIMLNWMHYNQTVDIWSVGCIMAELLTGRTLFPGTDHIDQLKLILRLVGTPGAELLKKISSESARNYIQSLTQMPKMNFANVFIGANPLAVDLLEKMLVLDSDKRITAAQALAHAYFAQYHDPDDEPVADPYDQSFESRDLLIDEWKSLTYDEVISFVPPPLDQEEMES
High affinity nerve growth factor receptor, sequence (P04629 whole entry): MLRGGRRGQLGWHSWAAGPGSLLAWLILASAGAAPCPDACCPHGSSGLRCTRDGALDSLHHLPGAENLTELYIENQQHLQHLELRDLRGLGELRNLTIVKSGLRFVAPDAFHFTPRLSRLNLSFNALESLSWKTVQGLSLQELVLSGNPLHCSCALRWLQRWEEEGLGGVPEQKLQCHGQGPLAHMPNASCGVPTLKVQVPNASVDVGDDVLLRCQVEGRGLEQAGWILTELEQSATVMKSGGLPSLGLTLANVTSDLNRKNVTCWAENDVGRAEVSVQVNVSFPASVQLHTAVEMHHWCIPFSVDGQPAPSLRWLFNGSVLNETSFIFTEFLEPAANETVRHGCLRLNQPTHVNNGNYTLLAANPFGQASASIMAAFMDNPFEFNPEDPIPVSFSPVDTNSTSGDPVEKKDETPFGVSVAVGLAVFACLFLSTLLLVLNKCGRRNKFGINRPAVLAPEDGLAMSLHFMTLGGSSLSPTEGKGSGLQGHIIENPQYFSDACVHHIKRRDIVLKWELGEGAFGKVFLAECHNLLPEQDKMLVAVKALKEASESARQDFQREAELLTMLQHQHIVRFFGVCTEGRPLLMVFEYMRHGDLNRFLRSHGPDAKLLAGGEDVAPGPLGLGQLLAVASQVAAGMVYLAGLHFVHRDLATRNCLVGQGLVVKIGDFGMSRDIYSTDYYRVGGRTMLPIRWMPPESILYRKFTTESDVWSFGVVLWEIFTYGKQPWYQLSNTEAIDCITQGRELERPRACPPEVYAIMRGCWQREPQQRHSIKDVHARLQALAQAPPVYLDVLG
DnaJ homolog subfamily A member 1, sequence (P31689 whole entry): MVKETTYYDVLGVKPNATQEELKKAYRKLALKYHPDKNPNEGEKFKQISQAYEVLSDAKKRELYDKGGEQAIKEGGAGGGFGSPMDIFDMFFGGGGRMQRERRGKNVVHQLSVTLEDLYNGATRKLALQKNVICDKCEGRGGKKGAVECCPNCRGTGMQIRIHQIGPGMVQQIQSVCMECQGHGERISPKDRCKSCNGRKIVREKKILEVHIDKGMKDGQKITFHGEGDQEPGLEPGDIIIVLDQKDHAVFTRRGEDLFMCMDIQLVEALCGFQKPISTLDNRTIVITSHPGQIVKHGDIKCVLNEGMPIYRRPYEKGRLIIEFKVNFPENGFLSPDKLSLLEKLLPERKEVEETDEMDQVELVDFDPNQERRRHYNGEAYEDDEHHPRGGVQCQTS

Row | Kd [1] | Kd [2] | Kd [3] | Kd [4] | Kd [5] | Kd [6] | Kd [7] | Kd [8] | Kd [9] | Kd [10] | Kd [11] | SMILES
1 | > 30 µM (inactive) | > 30 µM (inactive) | > 30 µM (inactive) | > 30 µM (inactive) | > 30 µM (inactive) | 4.21 µM (active) | > 30 µM (inactive) | > 30 µM (inactive) | > 30 µM (inactive) | > 30 µM (inactive) | > 30 µM (inactive) | COCc1c(-c2ccc(NC(=O)Nc3cc(C(F)(F)F)ccc3F)c(F)c2)c2c(N)ncnn2c1CN1CCOCC1
2 |  |  | > 30 µM (inactive) |  |  | 0.188 µM (active) |  |  | > 30 µM (inactive) |  |  | CNC(=O)c1ccccc1Sc1ccc2c(/C=C/c3ccccn3)n[nH]c2c1 [AXITINIB]
3 | > 30 µM (inactive) | > 30 µM (inactive) | > 30 µM (inactive) | > 30 µM (inactive) | > 30 µM (inactive) | > 30 µM (inactive) | > 30 µM (inactive) | > 30 µM (inactive) | > 30 µM (inactive) | > 30 µM (inactive) | > 30 µM (inactive) | COCC(=O)NC/C=C/c1ccc2ncnc(Nc3ccc(Oc4ccc(C)nc4)c(C)c3)c2c1 [CP-724714]
4 |  |  | > 30 µM (inactive) |  |  | > 30 µM (inactive) |  |  | > 30 µM (inactive) |  |  | C[C@@H](Oc1cc(-n2cnc3ccc(CN4CCN(C)CC4)cc32)sc1C(N)=O)c1ccccc1C(F)(F)F [GSK-461364]
5 | > 30 µM (inactive) | > 30 µM (inactive) | > 30 µM (inactive) | > 30 µM (inactive) | > 30 µM (inactive) | > 30 µM (inactive) | > 30 µM (inactive) | > 30 µM (inactive) | > 30 µM (inactive) | > 30 µM (inactive) | > 30 µM (inactive) | CNC(=O)c1cccc2cc(Oc3ccnc4cc(OCC5(N)CC5)c(OC)cc34)ccc12 [LUCITANIB]
6 | > 30 µM (inactive) | > 30 µM (inactive) | > 30 µM (inactive) | > 30 µM (inactive) | > 30 µM (inactive) | > 30 µM (inactive) | > 30 µM (inactive) | > 30 µM (inactive) | > 30 µM (inactive) | > 30 µM (inactive) | > 30 µM (inactive) | NC1(c2ccc(-c3nc4ccn5c(=O)[nH]nc5c4cc3-c3ccccc3)cc2)CCC1 [MK-2206]
7 | > 30 µM (inactive) | > 30 µM (inactive) | > 30 µM (inactive) | > 30 µM (inactive) | > 30 µM (inactive) | > 30 µM (inactive) | > 30 µM (inactive) | > 30 µM (inactive) | > 30 µM (inactive) | > 30 µM (inactive) | > 30 µM (inactive) | COc1ncc(-c2ccc3nccc(-c4ccnnc4)c3c2)cc1NS(=O)(=O)c1ccc(F)cc1F [OMIPALISIB]
8 |  |  | > 30 µM (inactive) |  |  | 2.6 µM (active) | > 30 µM (inactive) |  | > 30 µM (inactive) | > 30 µM (inactive) |  | NC(=O)c1c(OCc2c(F)cc(Br)cc2F)nsc1NC(=O)NCCCCN1CCCC1 [OSI-632]
9 | > 30 µM (inactive) | > 30 µM (inactive) |  | > 30 µM (inactive) | > 30 µM (inactive) | > 30 µM (inactive) | > 30 µM (inactive) | > 30 µM (inactive) | > 30 µM (inactive) | > 30 µM (inactive) | > 30 µM (inactive) | Cc1cnc(NC(=O)Nc2cc(Br)c(C)cc2OC[C@@H]2CNCCO2)cn1 [RABUSERTIB]
10 |  |  | > 30 µM (inactive) |  |  | > 30 µM (inactive) |  |  | > 30 µM (inactive) |  |  | O=C(NOCCO)c1cc(CN2OCCCC2=O)c(F)c(F)c1Nc1ccc(I)cc1F [RO-4987655]
11 |  |  | > 30 µM (inactive) |  |  | > 30 µM (inactive) |  |  | > 30 µM (inactive) |  |  | N#CC[C@H](C1CCCC1)n1cc(-c2ncnc3[nH]ccc23)cn1 [RUXOLITINIB]
12 | 0.843 µM (active) | > 30 µM (inactive) | > 30 µM (inactive) | > 30 µM (inactive) | > 30 µM (inactive) | 0.133 µM (active) | > 30 µM (inactive) | 22.5 µM (active) | > 30 µM (inactive) | > 30 µM (inactive) | > 30 µM (inactive) | CCS(=O)(=O)c1cccc(-c2cc(C(=O)NC3CCN(C)CC3)c(C)c3[nH]c4ncc(C)cc4c23)c1 [TAK-901]

Row | SMILES | Kd [1] | Kd [2] | Kd [3] | Kd [4] | Kd [5] | Kd [6] | Kd [7] | Kd [8] | Kd [9] | Kd [10] | Kd [11]
13 | CC(=O)c1cnc2ccc(-c3cc(Cl)c(O)c(Cl)c3)nc2c1N[C@H]1CC[C@H](CN(C)C)CC1 | > 30 µM (inactive) | > 30 µM (inactive) | > 30 µM (inactive) | 0.088 µM | 0.311 µM (active) | 0.014 µM (active) | 4.56 µM (active) | 0.087 µM (active) | > 30 µM (inactive) | 0.098 µM (active) | > 30 µM (inactive)
14 | CC(C)(C)c1nc(-c2cccc(NS(=O)(=O)c3c(F)cccc3F)c2F)c(-c2ccnc(N)n2)s1 [DABRAFENIB] |  |  |  | > 30 µM (inactive) | > 30 µM (inactive) | > 30 µM (inactive) | > 30 µM (inactive) |  | > 30 µM (inactive) | > 30 µM (inactive) | 
15 | Cn1cc(C2=C(c3cn(C4CCN(Cc5ccccn5)CC4)c4ccccc34)C(=O)NC2=O)c2ccccc21 [ENZASTAURIN] |  |  | > 30 µM (inactive) |  |  | > 30 µM (inactive) |  |  | > 30 µM (inactive) |  | 
16 | CNC(=O)c1cc(Oc2ccc(NC(=O)Nc3cc(C(C)(C)C)nn3-c3ccc4ncccc4c3)c(F)c2)ccn1 [REBASTINIB] |  | 2.76 µM (active) | > 30 µM (inactive) | 2.71 µM (active) | 0.732 µM (active) | 0.381 µM (active) | > 30 µM (inactive) | > 30 µM (inactive) | > 30 µM (inactive) | > 30 µM (inactive) | > 30 µM (inactive)

— ChEMBL document CHEMBL3991601, “The target landscape of clinical kinase drugs” (Science, 2017)
